Assay results published in US20150057443A1, “Cycloalkyl Amine Compounds” (Prexa Pharmaceuticals, Inc., priority 2013, published 2015).
Where two headings read alike, the source gives them in different places.

Legend:
human recombinant NET = molecular target: T1, human recombinant NET (Homo sapiens, UniProt P23975); test: NET radioligand binding assay (scintillation proximity, [3H]nisoxetine)
T1 construct: membranes)
Description: (§1) Affinity of the compounds for monoamine transporters was determined by in vitro radioligand binding assays using cell membrane preparations derived from HEK293 cell lines stably expressing human recombinant DAT, NET or SERT receptor (Suven Life Sciences, Hyderabad, India).
(§2) Stable DAT cell lines were generated following procedures described in Eshelman et al., Molecular Pharmacology 45, 312-316; 1994. Stable NET cell lines were generated following procedures described in Pacholczyk et al., Nature 350, 350-354, 1991 and Galli et al., Journal Exp. Biol. 198, 2197-2212, 1995. Stable SERT cell lines were generated following procedures described in Ramamoorthy et al., Proc Natl Acad Sci USA 90, 2542-246, 1993.
(§3) Cell membranes were obtained from the above-referenced cell lines by manually homogenizing previously frozen cell pellets in Tris-HCl buffer and serially centrifugating and re-extracting the preparations according procedures described in Subbu et al., Journal Pharmacol ExpTher 327, 982-990, 2008.
(§4) A scintillation proximity assay was used to measure receptor binding. Homogenized membrane preparations (final protein concentration 8-15 ug/well) were pre-incubated with WGA PVT SPA beads (0.5 mg/well) for 5 minutes. Binding was initiated by adding high affinity ligands and test compounds (0.1 nM to 10 μM) or reference/positive control ligands to the membrane-bead complex. Plates were incubated for three hours and raw data counts recorded using a liquid scintillation counter (MicroBetaTriLux Counter, Perkin Elmer). Inhibition constants (Ki) were calculated using GraphPad Prism software (version 4.0).
NET receptor binding was determined using procedures described in Mason et al., The Journal of Pharmacology and Experimental Therapeutics 323:720-729, 2007; and Eshleman et al., The Journal of Pharmacology and Experimental Therapeutics289:877-885, 1999. A mixture of [3H]nisoxetine hydrochloride (N-methyl-[3H]nisoxetine, Perkin Elmer) and bead-membrane complex was added to wells containing test compound. Wells containing unlabeled nisoxetine (100 uM, Sigma) were used to define non-specific NET binding. Total radioligand was defined using assay buffer containing 1% DMSO in the presence of [3H]nisoxetine. NET Ki values were calculated using GraphPad Prism software (version 4.0).

human recombinant SERT = molecular target: T2, human recombinant SERT (Homo sapiens, UniProt P31645); test: SERT radioligand binding assay (scintillation proximity, [3H]citalopram)
T2 construct: membranes)
Description: as §1, §2, §3, §4
SERT receptor binding was determined using procedures described in Owens et al., The Journal of Pharmacology and Experimental Therapeutics 283:1305-1322, 1997. A mixture of [3H]citalopram (N-methyl-[3H]citalopram, Perkin Elmer) and bead-membrane complex was added to wells containing test compound. Non-specific binding was determined using wells containing venlafaxine hydrochloride (100 uM, Sigma). Total radioligand was determined using assay buffer containing 1% DMSO in the presence of [3H]citalopram. SERT Ki values were calculated using GraphPad Prism software (version 4.0).

human recombinant DAT = human recombinant DAT (Homo sapiens, UniProt Q01959); test: DAT radioligand binding assay (scintillation proximity, [3H]WIN-35428)
Description: as §1, §2, §3, §4
DAT receptor binding was determined using procedures described in Skolnick et al., European Journal of Pharmacology, 461(2-3):99-104, 2003; and Eshleman et al., The Journal of Pharmacology and Experimental Therapeutics 289:877-885, 1999. A mixture of [3H]WIN-35428 (N-methyl 3H-WIN-35428, Perkin Elmer) and bead-membrane complex was added to wells containing test compound. Wells containing nomifensine maleate ([…], Sigma) were used to define non-specific […] binding. Total radioligand was defined by assay buffer containing 1% DMSO in the presence of [3H]WIN-35428. DAT Ki values were calculated using GraphPad Prism software (version 4.0).

[1] = HEK293 cell membranes expressing human recombinant NET, [3H]nisoxetine, SPA, read-out: NET Ki
[2] = HEK293 cell membranes expressing human recombinant SERT, [3H]citalopram, SPA, read-out: SERT Ki

T1 sequence (P23975 whole entry): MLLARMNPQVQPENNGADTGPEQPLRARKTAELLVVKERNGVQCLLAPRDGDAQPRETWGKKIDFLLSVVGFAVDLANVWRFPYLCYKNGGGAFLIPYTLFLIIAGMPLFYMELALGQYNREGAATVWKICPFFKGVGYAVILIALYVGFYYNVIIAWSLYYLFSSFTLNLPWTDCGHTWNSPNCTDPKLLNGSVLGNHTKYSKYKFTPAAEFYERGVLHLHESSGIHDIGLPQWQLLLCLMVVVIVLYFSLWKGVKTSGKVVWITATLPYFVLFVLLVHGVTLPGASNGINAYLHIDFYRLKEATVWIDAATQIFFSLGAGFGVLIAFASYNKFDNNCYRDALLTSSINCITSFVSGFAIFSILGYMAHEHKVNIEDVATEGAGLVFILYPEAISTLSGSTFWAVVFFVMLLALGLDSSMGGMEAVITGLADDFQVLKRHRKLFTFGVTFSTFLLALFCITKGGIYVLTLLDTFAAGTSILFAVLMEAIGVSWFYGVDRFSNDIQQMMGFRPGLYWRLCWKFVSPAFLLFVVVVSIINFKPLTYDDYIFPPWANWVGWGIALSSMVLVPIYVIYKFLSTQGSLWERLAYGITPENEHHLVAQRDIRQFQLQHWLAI
Chain of human recombinant DAT (Q01959 whole entry): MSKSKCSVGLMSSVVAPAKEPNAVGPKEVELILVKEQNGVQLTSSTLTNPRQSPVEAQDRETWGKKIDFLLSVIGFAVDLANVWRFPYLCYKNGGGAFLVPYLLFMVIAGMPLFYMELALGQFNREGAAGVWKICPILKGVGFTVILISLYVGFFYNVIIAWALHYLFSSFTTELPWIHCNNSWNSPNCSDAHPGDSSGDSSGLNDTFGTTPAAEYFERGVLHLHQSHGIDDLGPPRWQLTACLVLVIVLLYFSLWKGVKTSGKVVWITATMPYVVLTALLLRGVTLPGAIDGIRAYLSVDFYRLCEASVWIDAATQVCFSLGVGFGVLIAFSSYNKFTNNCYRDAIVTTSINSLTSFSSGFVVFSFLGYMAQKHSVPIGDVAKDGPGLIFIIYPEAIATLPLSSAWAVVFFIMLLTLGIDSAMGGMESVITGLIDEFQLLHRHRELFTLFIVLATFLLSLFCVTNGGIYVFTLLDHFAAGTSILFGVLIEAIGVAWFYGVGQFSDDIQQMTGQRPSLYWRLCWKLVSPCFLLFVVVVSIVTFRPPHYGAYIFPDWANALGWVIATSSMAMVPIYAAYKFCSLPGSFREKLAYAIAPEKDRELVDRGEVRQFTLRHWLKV
T2 sequence (P31645 whole entry): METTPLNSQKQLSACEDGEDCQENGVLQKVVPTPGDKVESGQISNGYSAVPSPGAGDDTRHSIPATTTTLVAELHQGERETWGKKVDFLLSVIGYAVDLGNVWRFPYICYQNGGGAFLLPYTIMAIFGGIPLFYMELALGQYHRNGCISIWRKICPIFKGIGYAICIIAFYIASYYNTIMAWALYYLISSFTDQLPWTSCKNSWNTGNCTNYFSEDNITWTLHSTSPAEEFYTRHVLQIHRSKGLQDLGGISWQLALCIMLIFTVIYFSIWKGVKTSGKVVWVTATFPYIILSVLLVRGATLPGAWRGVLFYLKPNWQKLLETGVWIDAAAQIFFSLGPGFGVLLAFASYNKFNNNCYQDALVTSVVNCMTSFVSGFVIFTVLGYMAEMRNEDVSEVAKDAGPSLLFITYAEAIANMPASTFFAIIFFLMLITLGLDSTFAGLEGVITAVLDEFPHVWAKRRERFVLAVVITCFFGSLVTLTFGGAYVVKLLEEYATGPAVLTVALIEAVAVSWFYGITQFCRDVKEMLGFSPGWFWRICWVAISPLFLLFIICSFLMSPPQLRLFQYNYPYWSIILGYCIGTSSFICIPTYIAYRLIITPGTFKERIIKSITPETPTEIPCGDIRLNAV

| SMILES | Ki (human recombinant NET; [1]) [nM] | Ki (human recombinant SERT; [2]) [nM] | Ki (human recombinant DAT) [nM] | Ki (human recombinant NET) [nM] | Ki (human recombinant SERT) [nM] | Ki (human recombinant DAT; HEK293 cell membranes expressing human recombinant DAT, [3H]WIN-35428, SPA, read-out: DAT Ki) [nM] |
| --- | --- | --- | --- | --- | --- | --- |
| OC(CNC1CC1)C1(c2ccc(Cl)c(Cl)c2)CCC1 (stereo not drawn) [Compound 35, N-{2-[1-(3,4-Dichlorophenyl)cyclobutyl]-2-hydroxyethyl}cyclopropanaminium chloride] | 101 to 500 | > 500 | 11 to 100 | – | – | – |
| OC(CNC1CCC1)C1(c2ccc(Cl)c(Cl)c2)CCC1 (stereo not drawn) [Compound 36, N-{2-[1-(3,4-Dichlorophenyl)cyclobutyl]-2-hydroxyethyl}cyclobutanaminium chloride] | 101 to 500 | 101 to 500 | 11 to 100 | – | – | – |
| CC1(NCC(O)C2(c3ccc(Cl)c(Cl)c3)CCC2)CCC1 (stereo not drawn) [Compound 38, N-{2-[1-(3,4-Dichlorophenyl)cyclobutyl]-2-hydroxyethyl}-1-methylcyclobutan-1-aminium chloride] | 11 to 100 | 101 to 500 | < 10 | – | – | – |
| OC(CN1CC2CC(F)C1C2)C1(c2ccc(Cl)c(Cl)c2)CCC1 (stereo not drawn) [Compound 39, 2-{2-[1-(3,4-Dichlorophenyl)cyclobutyl]-2-hydroxyethyl}-6-fluoro-2-azabicyclo[2.2.1]heptan-2-ium chloride] | 101 to 500 | > 500 | 101 to 500 | – | – | – |
| CC(F)C(C)NCC(O)C1(c2ccc(Cl)c(Cl)c2)CCC1 (stereo not drawn) [Compound 42, {2-[1-(3,4-dichlorophenyl)cyclobutyl]-2-hydroxyethyl}(3-fluorobutan-2-yl)azanium chloride] | 101 to 500 | 101 to 500 | 11 to 100 | – | – | – |
| CCN(CC(O)C1(c2ccc(Cl)c(Cl)c2)CCC1)C(C)C (stereo not drawn) [Compound 47, {2-[1-(3,4-Dichlorophenyl)cyclobutyl]-2-hydroxyethyl}(ethyl)(propan-2-yl)azanium chloride] | 11 to 100 | 101 to 500 | 11 to 100 | – | – | – |
| CCCN(CC)CC(O)C1(c2ccc(Cl)c(Cl)c2)CCC1 (stereo not drawn) [Compound 48, {2-[1-(3,4-Dichlorophenyl)cyclobutyl]-2-hydroxyethyl}(ethyl)propylazanium chloride] | 11 to 100 | 101 to 500 | 11 to 100 | – | – | – |
| COC(CN1CCCCC1)C1(c2ccc(Cl)c(Cl)c2)CCC1 (stereo not drawn) [Compound 59, 1-{2-[1-(3,4-dichlorophenyl)cyclobutyl]-2-methoxyethyl}piperidin-1-ium chloride] | > 500 | > 500 | > 500 | – | – | – |
| OC(CN1CCCCC1)C1(c2ccc(Cl)c(Cl)c2)CCCC1 (stereo not drawn) [Compound 60, 1-{2-[1-(3,4-dichlorophenyl)cyclopentyl]-2-hydroxyethyl}piperidin-1-ium chloride] | 101 to 500 | 101 to 500 | 11 to 100 | – | – | – |
| O=C(CN1CCCCC1)C1(c2ccc(Cl)c(Cl)c2)CCCC1 [Compound 61, 1-{2-[1-(3,4-dichlorophenyl)cyclopentyl]-2-oxoethyl}piperidin-1-ium chloride] | > 500 | > 500 | 11 to 100 | – | – | – |
| O=C(CN1CCCCC1)C1(c2ccc(Cl)cc2)CCC1 [Compound 66] | – | – | – | > 500 | > 500 | > 500 |
| O=C(CN1CCCCC1)C1(c2ccc(Cl)c(Cl)c2)CCC1 [Compound 67] | > 500 | 101 to 500 | 11 to 100 | – | – | – |
| O=C(CN1CCCCC1)C1(c2ccccc2)CCC1 [Compound 68, 1-[2-oxo-2-(1-phenylcyclobutyl)ethyl]piperidin-1-ium chloride] | > 500 | > 500 | > 500 | – | – | – |
| O=C(CN1CCCCC1)C1(c2cccc(Cl)c2)CCC1 [Compound 69] | > 500 | > 500 | > 500 | – | – | – |
| CC(O)(CN1CCCCC1)C1(c2ccc(Cl)c(Cl)c2)CCC1 (stereo not drawn) [Compound 71, 1-{2-[1-(3,4-dichlorophenyl)cyclobutyl]-2-hydroxypropyl}piperidin-1-ium chloride] | 101 to 500 | > 500 | 11 to 100 | – | – | – |
